According to PubChem BioAssay (NCI):
Where “and” joins values, the source holds several entries; their conditions need not be identical. Identical values can stand only once.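 The compound was tested at five concentrations on cells cultured in 96-well plates, with a 48-hour exposure period. Abbreviation: GI50, concentration required for 50% inhibition of growth. TGI: concentration producing complete growth inhibition.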

Key:
Experiment in all cases: NCI anticancer screen, dose series, 48 h
HT29 colon = test system: HT29 colon
IGROV1 ovarian = test system: IGROV1 ovarian
HOP-92 NSCLC = test system: HOP-92 NSCLC
TK-10 renal = test system: TK-10 renal
K-562 leukemia = test system: K-562 leukemia
MDA-N = test system: MDA-N
HS 578T breast = test system: HS 578T breast
SF-268 CNS = test system: SF-268 CNS
CCRF-CEM leukemia = test system: CCRF-CEM leukemia
T-47D breast = test system: T-47D breast
COLO 205 colon = test system: COLO 205 colon

SMILES	TGI (HT29 colon)	TGI (IGROV1 ovarian)	TGI (HOP-92 NSCLC)	TGI (TK-10 renal)	TGI (K-562 leukemia)	TGI (MDA-N)	TGI (HS 578T breast)	TGI (SF-268 CNS)	TGI (CCRF-CEM leukemia)	TGI (T-47D breast)	TGI (COLO 205 colon)	GI50 (HT29 colon)	GI50 (IGROV1 ovarian)	GI50 (HOP-92 NSCLC)	GI50 (K-562 leukemia)	GI50 (MDA-N)	GI50 (SF-268 CNS)	GI50 (CCRF-CEM leukemia)	GI50 (T-47D breast)	GI50 (COLO 205 colon)
CN1B(c2ccccc2)N(C)C(=O)N(C)C1=O	> 100 µM	> 100 µM	> 100 µM	> 100 µM	> 100 µM	> 100 µM	> 100 µM	> 100 µM	> 100 µM	> 100 µM	> 100 µM	–	–	–	–	–	–	–	–	–
Cc1cc(C)c(N=Nc2c(O)c(S(=O)(=O)O)cc3cc(S(=O)(=O)O)ccc23)cc1C	> 100 µM	> 100 µM	> 100 µM	> 100 µM	> 100 µM	> 100 µM	> 100 µM	> 100 µM	> 100 µM	> 100 µM	> 100 µM	–	–	–	–	–	–	–	–	–
O=S(=O)(/N=C(\NO)Nc1ccc(Cl)cc1)c1ccc(-c2ccccn2)s1	> 100 µM	> 100 µM	> 100 µM	> 100 µM	> 100 µM	94.5 µM	> 100 µM	> 100 µM	> 100 µM	> 100 µM	> 100 µM	–	–	–	–	–	–	–	–	–
CC(=O)C1(O)Cc2c(O)c3c(c(O)c2C(OC2CC(N)C(O)C(C)O2)C1)C(=O)c1ccccc1C3=O (stereo not drawn)	0.432 µM and 0.234 µM	0.525 µM and 0.503 µM	0.867 µM and 0.413 µM	0.158 µM	0.78 µM and 0.716 µM	0.404 µM and 0.211 µM	0.391 µM	0.343 µM and 0.233 µM	–	0.631 µM and 0.219 µM	0.803 µM and 0.181 µM	0.0117 µM	0.0383 µM	0.0165 µM	< 0.0109 µM	0.026 µM	0.0259 µM	0.00214 µM	< 0.0145 µM	0.0227 µM
CN(C)CCNc1nc2c(no[n+]2[O-])c2ccccc12	> 100 µM	53 µM	45.1 µM	63.1 µM	87.7 µM	91.4 µM	76.6 µM	> 100 µM	> 100 µM	> 100 µM	66.7 µM	–	–	–	–	–	–	–	–	–
C=CC1(c2ccc(OC)cc2)OCCCO1	> 100 µM	> 100 µM	> 100 µM	> 100 µM	> 100 µM	> 100 µM	> 100 µM	> 100 µM	> 100 µM	> 100 µM	> 100 µM	–	–	–	–	–	–	–	–	–
CCN(CC)CCC(=O)c1ccc(Oc2ccc(F)cc2)cc1	38.6 µM	36 µM	34 µM	31.7 µM	> 100 µM	31.9 µM	60.2 µM	35.5 µM	50.1 µM	42 µM	33.7 µM	–	–	–	–	–	–	–	–	–
O=C1c2cc([N+](=O)[O-])sc2C(=O)c2ccsc21	1.48 µM	0.878 µM	0.443 µM	1.99 µM	0.191 µM	0.378 µM	1.85 µM	1.06 µM	0.227 µM	1.53 µM	1.66 µM	–	–	–	–	–	–	–	–	–
COc1ccc2c(c1)-c1[nH]c3ccccc3c1CC2	22.9 µM	18.8 µM	31.8 µM	31.7 µM	> 100 µM	31.6 µM	30.6 µM	28.4 µM	50.8 µM	29.1 µM	32.3 µM	–	–	–	–	–	–	–	–	–
CCOP(=O)(OCC)C(C)(C)OC(=O)NC#N	> 100 µM	> 100 µM	> 100 µM	> 100 µM	> 100 µM	> 100 µM	> 100 µM	> 100 µM	> 100 µM	> 100 µM	> 100 µM	–	–	–	–	–	–	–	–	–
C=C1c2nc3ccccc3n2C=C(c2ccc(OC)cc2)N1c1ccc(OCCN2CCOCC2)cc1	> 100 µM	> 100 µM	> 100 µM	> 100 µM	> 100 µM	> 100 µM	> 40 µM	> 31.9 µM	> 86.9 µM	> 100 µM	> 57 µM	–	–	–	–	–	–	–	–	–
CCOP(=O)(OCC)C(Nc1ccc(F)cc1)c1ccccc1 (stereo not drawn)	> 100 µM	> 100 µM	> 100 µM	> 100 µM	> 100 µM	> 100 µM	> 100 µM	> 100 µM	> 100 µM	> 100 µM	> 100 µM	–	–	–	–	–	–	–	–	–
COc1cccc(-c2cc(=O)c3cc(Cl)cnc3[nH]2)c1	13.8 µM	> 100 µM	63.9 µM	> 89.9 µM	> 100 µM	0.0239 µM	47.6 µM	> 87.3 µM	> 100 µM	> 100 µM	7.59 µM	–	–	–	–	–	–	–	–	–
C=CCC(CNC(=O)OCc1ccccc1)OC(=O)OCc1ccccc1 (stereo not drawn)	> 100 µM	> 100 µM	> 100 µM	> 100 µM	> 100 µM	> 100 µM	> 100 µM	> 100 µM	> 100 µM	> 100 µM	> 100 µM	–	–	–	–	–	–	–	–	–
Cc1nc2c(=O)[nH]c3ccc(Cl)cc3c2o1	> 100 µM	> 100 µM	> 100 µM	> 100 µM	> 100 µM	> 100 µM	> 100 µM	> 100 µM	> 100 µM	> 100 µM	> 100 µM	–	–	–	–	–	–	–	–	–
